# Reference: US6267945A, “Farnesol-related calcium channel blockers” (NeuroMed Technologies, Inc., priority 1998, dated 2001)
# Like-named read-outs stand apart in the source and are kept apart here.
# Experiments:
# [1] = target: T1, N-type calcium channel (α1B + α2 + β1b) (Rattus norvegicus, UniProt Q02294); experiment: Inactivation of N-type calcium channels (steady state inactivation, shift in V0.5), whole cell patch clamp; type: cell-based
# T1 construct: expressed in transfected cells; host or cells: HEK293 cells stably expressing, or HEK TSA 201 cells transiently transfected with, α1B + α2 + β1b
# Description: (§1) There are two distinguishable types of calcium channel inhibition. […] A second type of block is referred to herein as "inactivation inhibition." When maintained at less negative resting potentials, such as the physiologically important potential of -70 mV, a certain percentage of the receptor channels may undergo conformational change, rendering them incapable of being activated--i.e., opened--by the abrupt depolarization. Thus, the peak current due to calcium ion flow will be diminished not because the open channel is blocked, but because some of the channels are unavailable for opening (inactivated). "Inactivation" type inhibitors increase the percentage of receptors that are inactivated.
# (§2) As described above, a more definitive assay can be used to distinguish inhibitors of calcium flow which operate as open channel blockers, as opposed to those that operate by promoting inactivation of the channel. The methods to distinguish these types of inhibition are more particularly described in the examples below. In general, open-channel blockers are assessed by measuring the level of peak current when deploarization is imposed on a background resting potential of about -100 mV in the presence and absence of the candidate compound. Successful open-channel blockers will reduce the peak current observed and accelerate the decay of this current. Compounds that are inactivated channel blockers are determined by their ability to shift the voltage dependence of inactivation towards more negative potentials. This is also reflected in their ability to reduce peak currents at more depolarized holding potentials(e.g., -70 mV).
# (§3) Human embryonic kidney TSA 201 cells were grown in standard DMEM medium, supplemented with 10% fetal bovine serum and 0.4 mg/ml neomycin. The cells were grown to 80% confluency, split with trypsin EDTA and plated on glass coverslips at 10% confluency 12 hours prior to transfection. Immediately prior to transfection, the medium was replaced and the cells were transiently transfected with cDNAs encoding calcium channel α1B, β1b and α2 subunits (at a 1:1:1 molar ratio) using a standard calcium phosphate protocol. After 12 hours, the medium was replaced with fresh DMEM and the cells were allowed to recover for 12 hours. Subsequently the cells were incubated at 28° C. in 5% CO2 for 1-2 days prior to recording. Human embryonic kidney cells stably expressing N-type α1B +α2 +β1b were maintained and plated for electrophysiological recordings as described by Zamponi, G. W. et al., Nature (1997) 385:442-446.
# (§4) Immediately prior to recording, individual cover slips were transferred to a 3 cm culture dish containing an external recording solution. The external recording solution was 20 mM BaCl2, 1 mM MgCl2, 10 mM HEPES, 40 mM TEACl, 10 mM glucose, 65 mM CsCl (pH 7.2) or 5 mM BaCl2, 1 mM MgCl2, 10 mM HEPES, 40 mM TEACl, 10 mM glucose, 87.5 mM CsCl (pH 7.2). […] The internal pipette solution is 105 mM CsCl, 25 mM TEACl, 1 mM CaCl2, 11 mM EGTA, 10 mM HEPES (pH 7.2). Whole cell patch clamp experiments were performed using an Axopatch 200B amplifier (Axon Instruments, Burlingame, Calif.) linked to an IBM compatible personal computer equipped with pCLAMP 6.0 software. Currents were typically elicited from a holding potential of -100 mV to various test potentials. The compounds to be tested were prepared as stock solutions in ethanol and diluted into the recording solution at the appropriate final concentrations, and perfused directly onto the cells using a gravity driven microperfusion system. At the applicable concentrations, ethanol by itself had no effect on calcium channel activity. Data were filtered at 1 kHz and recorded directly on the hard drive of a personal computer. The data were analyzed using ClampFit (Axon Instruments). Curve fitting was carried out in Sigmaplot 4.0 (Jandel Scientific). Steady state inactivation curves were fitted with a Boltzman equation,
# Ipeak(normalized) =1/(1+exp((V-Vh)Z/25.6)) […]
# [2] = target: T1, N-type calcium channel (α1B + α2 + β1b); experiment: Open-channel block of N-type calcium channels, whole cell patch clamp, holding potential -100 mV; type: cell-based; settings: for inhibition at 10 µM: read-out: Open/Resting Block (determined at 10 μM); for normalized peak height: -100 mV to +20 mV
# Description: as §1, §2, §3
# as §4, with “equation, […]” for “equation,”
# [3] = system: P/Q type calcium channel (α1A); experiment: Inactivation effect on P/Q-type channels, resting potential -70 mV; type: cell-based; settings: 250 nM farnesol
# Procedure: as §3
# (§5) For some experiments, cells were prepared wherein the α1B unit was replaced by α1A (P/Q type) α1C (type L) or α1E (undefined). α1B represents N-type.
# (§6) Immediately prior to recording, individual cover slips were transferred to a 3 cm culture dish containing an external recording solution. […] Data were filtered at 1 kHz and recorded directly on the hard drive of a personal computer. The data were analyzed using ClampFit (Axon Instruments). […]
# [4] = system: L-type calcium channel (α1C); experiment: Open-channel block of L-type channels, resting potential -100 mV; type: cell-based; settings: 25 μM farnesol
# Procedure: as §3, §5, §6
# α1E calcium channel [5] = experiment: Open-channel block of α1E channels, resting potential -100 mV; type: cell-based; settings: 25 μM farnesol
# Procedure: as §3, §5, §6
# [6] = system: L-type calcium channel (α1C); experiment: Inactivation effect on L-type channels, resting potential -70 mV; type: cell-based; settings: 250 nM farnesol
# Procedure: as §3, §5, §6
# [7] = system: P/Q type calcium channel (α1A); experiment: Open-channel block of P/Q-type channels, resting potential -100 mV; type: cell-based; settings: 25 μM farnesol
# Procedure: as §3, §5, §6
# α1E calcium channel [8] = experiment: Inactivation effect on α1E channels, resting potential -70 mV; type: cell-based; settings: 250 nM farnesol
# Procedure: as §3, §5, §6
# L-type receptors = settings: micromolar range; cited from earlier work
# [9] = corrected for control inactivation rate, linear fit
# T1 sequence (Q02294 whole entry): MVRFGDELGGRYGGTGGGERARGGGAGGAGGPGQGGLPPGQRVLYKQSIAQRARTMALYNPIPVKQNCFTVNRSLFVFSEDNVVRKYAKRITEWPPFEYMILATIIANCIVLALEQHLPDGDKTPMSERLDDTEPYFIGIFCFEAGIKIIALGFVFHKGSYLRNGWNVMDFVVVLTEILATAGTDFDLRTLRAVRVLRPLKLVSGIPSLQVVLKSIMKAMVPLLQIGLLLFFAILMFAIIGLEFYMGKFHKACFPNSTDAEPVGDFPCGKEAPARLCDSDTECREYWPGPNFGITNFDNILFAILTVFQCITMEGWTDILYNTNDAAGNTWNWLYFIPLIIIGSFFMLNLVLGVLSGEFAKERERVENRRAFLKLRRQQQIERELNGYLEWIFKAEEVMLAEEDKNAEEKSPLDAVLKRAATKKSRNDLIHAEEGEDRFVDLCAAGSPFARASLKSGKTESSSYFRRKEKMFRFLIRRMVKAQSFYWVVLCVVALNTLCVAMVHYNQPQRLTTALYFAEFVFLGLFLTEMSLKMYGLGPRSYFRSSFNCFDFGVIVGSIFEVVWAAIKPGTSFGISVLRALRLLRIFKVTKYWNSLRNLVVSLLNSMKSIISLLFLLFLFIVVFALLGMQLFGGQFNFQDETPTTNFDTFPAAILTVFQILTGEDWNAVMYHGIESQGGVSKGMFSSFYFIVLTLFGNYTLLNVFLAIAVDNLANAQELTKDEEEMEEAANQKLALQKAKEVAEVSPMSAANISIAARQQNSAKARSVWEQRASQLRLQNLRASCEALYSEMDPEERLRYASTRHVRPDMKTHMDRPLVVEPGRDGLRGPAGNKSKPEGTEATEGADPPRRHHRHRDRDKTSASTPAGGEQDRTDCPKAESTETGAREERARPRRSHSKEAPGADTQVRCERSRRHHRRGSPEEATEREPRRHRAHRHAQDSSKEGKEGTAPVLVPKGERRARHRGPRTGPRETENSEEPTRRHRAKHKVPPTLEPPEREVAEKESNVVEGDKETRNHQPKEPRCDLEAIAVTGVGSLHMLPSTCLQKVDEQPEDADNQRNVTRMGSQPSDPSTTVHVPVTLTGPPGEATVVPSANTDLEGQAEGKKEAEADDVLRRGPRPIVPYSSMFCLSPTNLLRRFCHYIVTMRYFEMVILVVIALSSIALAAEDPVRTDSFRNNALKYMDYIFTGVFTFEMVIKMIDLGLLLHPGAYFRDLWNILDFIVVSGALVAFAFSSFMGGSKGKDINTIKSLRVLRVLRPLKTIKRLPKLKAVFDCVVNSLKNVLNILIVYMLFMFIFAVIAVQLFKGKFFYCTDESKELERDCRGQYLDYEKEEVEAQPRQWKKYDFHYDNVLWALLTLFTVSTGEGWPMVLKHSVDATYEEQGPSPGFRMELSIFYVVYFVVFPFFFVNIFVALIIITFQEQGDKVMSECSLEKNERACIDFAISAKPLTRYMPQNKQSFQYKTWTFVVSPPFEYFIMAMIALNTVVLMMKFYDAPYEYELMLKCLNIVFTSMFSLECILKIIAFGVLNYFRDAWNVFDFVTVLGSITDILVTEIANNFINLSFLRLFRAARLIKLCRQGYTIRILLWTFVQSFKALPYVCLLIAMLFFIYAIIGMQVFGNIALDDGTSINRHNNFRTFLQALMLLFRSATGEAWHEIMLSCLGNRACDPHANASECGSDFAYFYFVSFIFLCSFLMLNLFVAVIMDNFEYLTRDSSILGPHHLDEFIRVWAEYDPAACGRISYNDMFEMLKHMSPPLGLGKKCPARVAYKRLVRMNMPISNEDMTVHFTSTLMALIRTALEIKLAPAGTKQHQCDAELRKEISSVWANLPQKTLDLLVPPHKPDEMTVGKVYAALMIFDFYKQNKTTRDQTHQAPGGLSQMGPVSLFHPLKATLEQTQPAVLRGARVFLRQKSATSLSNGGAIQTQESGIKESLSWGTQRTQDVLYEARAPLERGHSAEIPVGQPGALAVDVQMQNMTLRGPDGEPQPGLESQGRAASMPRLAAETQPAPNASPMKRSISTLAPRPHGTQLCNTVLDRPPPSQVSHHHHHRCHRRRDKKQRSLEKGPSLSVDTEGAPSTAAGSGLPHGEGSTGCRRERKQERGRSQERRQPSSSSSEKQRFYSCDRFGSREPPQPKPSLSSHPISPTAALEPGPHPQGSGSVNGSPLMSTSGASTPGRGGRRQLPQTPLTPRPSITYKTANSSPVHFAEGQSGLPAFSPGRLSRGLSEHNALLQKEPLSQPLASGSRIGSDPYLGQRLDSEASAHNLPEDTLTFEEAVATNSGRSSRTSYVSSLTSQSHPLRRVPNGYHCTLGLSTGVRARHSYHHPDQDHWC
# T1 sequence (P54290 25-944 partner limits assumed): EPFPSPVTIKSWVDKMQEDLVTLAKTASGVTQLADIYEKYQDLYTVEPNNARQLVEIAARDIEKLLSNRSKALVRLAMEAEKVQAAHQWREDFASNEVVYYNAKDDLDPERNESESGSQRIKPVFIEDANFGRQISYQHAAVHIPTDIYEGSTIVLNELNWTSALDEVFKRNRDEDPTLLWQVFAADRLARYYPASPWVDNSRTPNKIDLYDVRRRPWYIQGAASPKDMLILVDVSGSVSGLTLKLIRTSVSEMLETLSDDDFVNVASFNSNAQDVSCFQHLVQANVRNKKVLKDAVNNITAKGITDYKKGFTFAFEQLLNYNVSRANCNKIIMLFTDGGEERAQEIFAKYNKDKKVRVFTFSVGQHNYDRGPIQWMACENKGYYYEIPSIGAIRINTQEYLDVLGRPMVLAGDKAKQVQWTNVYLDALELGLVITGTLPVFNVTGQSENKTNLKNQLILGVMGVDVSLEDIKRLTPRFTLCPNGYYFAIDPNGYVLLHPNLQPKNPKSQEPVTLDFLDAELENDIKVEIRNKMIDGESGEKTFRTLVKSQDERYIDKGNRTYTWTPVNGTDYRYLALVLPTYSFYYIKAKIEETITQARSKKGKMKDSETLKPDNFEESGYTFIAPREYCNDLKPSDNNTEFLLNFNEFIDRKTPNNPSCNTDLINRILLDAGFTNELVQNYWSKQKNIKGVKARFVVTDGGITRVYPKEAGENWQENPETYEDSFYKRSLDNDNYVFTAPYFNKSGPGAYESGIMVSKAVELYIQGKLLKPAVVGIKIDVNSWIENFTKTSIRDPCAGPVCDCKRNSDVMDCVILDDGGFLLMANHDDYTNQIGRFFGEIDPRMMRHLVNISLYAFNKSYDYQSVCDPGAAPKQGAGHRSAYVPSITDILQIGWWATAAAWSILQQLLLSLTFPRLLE
# T1 sequence (P54290 945-1091 partner limits assumed): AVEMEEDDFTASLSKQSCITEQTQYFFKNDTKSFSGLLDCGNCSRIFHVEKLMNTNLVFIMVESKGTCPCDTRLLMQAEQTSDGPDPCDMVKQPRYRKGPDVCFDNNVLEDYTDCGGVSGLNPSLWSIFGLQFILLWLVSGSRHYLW
# T1 sequence (P54283 whole entry partner): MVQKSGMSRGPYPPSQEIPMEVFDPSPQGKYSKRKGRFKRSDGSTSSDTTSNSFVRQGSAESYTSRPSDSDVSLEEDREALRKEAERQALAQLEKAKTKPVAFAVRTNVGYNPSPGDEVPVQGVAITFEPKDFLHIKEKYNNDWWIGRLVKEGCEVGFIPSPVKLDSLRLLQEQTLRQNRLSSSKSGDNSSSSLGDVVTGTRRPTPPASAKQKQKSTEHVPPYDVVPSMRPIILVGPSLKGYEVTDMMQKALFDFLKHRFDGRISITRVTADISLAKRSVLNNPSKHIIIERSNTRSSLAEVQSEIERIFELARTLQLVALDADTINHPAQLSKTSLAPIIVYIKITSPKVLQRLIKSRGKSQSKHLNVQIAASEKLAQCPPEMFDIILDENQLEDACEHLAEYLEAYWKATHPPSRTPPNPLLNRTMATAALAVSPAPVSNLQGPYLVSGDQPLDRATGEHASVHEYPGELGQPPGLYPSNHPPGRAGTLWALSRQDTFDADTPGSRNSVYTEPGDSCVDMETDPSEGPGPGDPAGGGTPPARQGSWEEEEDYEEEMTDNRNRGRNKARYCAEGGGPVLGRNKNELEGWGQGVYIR
smiles,measurement,setting,value
CC(C)CCCC(C)CCCC(C)CCCC(C)C (stereo not drawn),Inactivated Block (shift in V0.5),[1],~ 10 mV
same,inactivation-type inhibition specific to the N-type receptor (summary in words),[1],able to promote substantial inactivation-type inhibition
same,nonspecific open-channel blocking activity (summary in words),[2],relatively lacking
same,Open/Resting Block (determined at 10 μM),[2],< 10%
CCCCCCCCCCCC [dodecane],Inactivated Block (shift in V0.5),[1],~ 10 mV
same,inactivation-type inhibition specific to the N-type receptor (summary in words),[1],able to promote substantial inactivation-type inhibition
same,nonspecific open-channel blocking activity (summary in words),[2],relatively lacking
same,inhibition at 10 µM,[2],10 to 20%
COC(=O)C=C(C)CCC=C(C)CCC1OC1(C)C (stereo not drawn) [juvenile hormone III],Inactivated Block (shift in V0.5),[1],~ 10 mV
same,inactivation-type inhibition specific to the N-type receptor (summary in words),[1],able to promote substantial inactivation-type inhibition
same,nonspecific open-channel blocking activity (summary in words),[2],relatively lacking
same,Open/Resting Block (determined at 10 μM),[2],Not active
CC(=O)OCC=C(C)CCC=C(C)CCC=C(C)C [farnesyl acetate],Inactivated Block (shift in V0.5),[1],~ 20 mV
same,inhibition at 10 µM,[2],90 to 100%
CC(C)=CCCC(C)=CCCC(C)=CCO [farnesol],peak current at -70 mV resting potential normalized to -100 mV,[3],Only the N-type channels show substantially diminished values
same,channel type preference of open channel block,[4],preferentially inhibited
same,open channel blocking effect on current amplitudes,[4],diminished peak heights
same,open channel blocking effect on current amplitudes,α1E calcium channel [5],diminished peak heights
same,Inactivated Block (shift in V0.5),[1],10-25 mV
same,V0.5,[1]; 100 nM farnesol,-70 mV
same,time course of development of current amplitude diminution,"[1]; 100 nM farnesol, resting potential -70 mV",slower than that obtained at a resting potential of -100 mV
same,recovery from block,"[1]; 100 nM farnesol, resting potential -70 mV, compared with open-channel blockage",much slower
same,peak current at -70 mV resting potential normalized to -100 mV,[1]; 250 nM farnesol,substantially diminished
same,reversibility of effect,"[1]; 250 nM farnesol, holding -70 mV to test +10 mV",does not appear to be completely reversible
same,Z slope factor (Boltzman fit),[1]; 25 μM farnesol,3.8
same,shift in V0.5,[1]; 25 μM farnesol,about 20 mV
same,V0.5 (resting potential that diminishes peak currents to 1/2),"[1]; 25 μM farnesol present, mean values",-70 mV
same,Vh (Boltzman fit of steady state inactivation),"[1]; 25 μM farnesol, test potential +20 mV",-68.7 mV
same,Vh (Boltzman fit of steady state inactivation),"[1]; Wash, after 25 μM farnesol",-56.5 mV
same,Z slope factor (Boltzman fit),"[1]; Wash, after 25 μM farnesol",4.0
same,activity at 25 µM,[1]; read-out: peak current value (normalized to -100 mV resting potential),50%
same,activity at 25 µM,[1]; read-out: peak value as % of base value (normalized to -100 mV resting potential),80%
same,peak current at -70 mV resting potential normalized to -100 mV,[6],Only the N-type channels show substantially diminished values
same,open channel blocking effect on current amplitudes,[7],diminished peak heights
same,peak current at -70 mV resting potential normalized to -100 mV,α1E calcium channel [8],Only the N-type channels show substantially diminished values
same,normalized peak height,[2]; 5 μM farnesol,diminished
same,time to decay of current to the resting level,[2]; 5 μM or 25 μM farnesol,accelerated time to decay to the resting level
same,position of peak amplitude with respect to depolarization voltage (current/voltage relationship),[2]; 10 μM farnesol,no dependence
same,normalized peak height,[2]; 25 μM farnesol,further dramatically diminished
same,open channel blocking effect on current amplitudes,"[2]; 25 μM farnesol, resting potential -100 mV",diminished peak heights
same,peak currents upon removal of farnesol (reversibility),[2]; after 5 μM and 25 μM farnesol,regenerated
same,intercept of inverse time constant for current decay versus farnesol concentration,[2]; [9],7.6
same,slope of inverse time constant for current decay versus farnesol concentration,[2]; [9],4.8
same,inhibition at 10 µM,[2],60%
same,"calcium-channel blocking, open channel blockage, channel preference",L-type receptors,preference for inhibition of L-type receptors
CC(C)=CCCC(C)=CCCC(C)=CCBr [farnesyl bromide],Inactivated Block (shift in V0.5),[1],~ 20 mV
same,inactivation-type inhibition specific to the N-type receptor (summary in words),[1],able to promote substantial inactivation-type inhibition
same,nonspecific open-channel blocking activity (summary in words),[2],relatively lacking
same,inhibition at 10 µM,[2],20 to 30%
CC(C)=CCCC(C)=CCCC(C)=CCOP(=O)(O)OP(=O)(O)O [farnesyl pyrophosphate],Open/Resting Block (determined at 10 μM),[2],Not active
CCCCCCCCCCCCN [dodecylamine],Inactivated Block (shift in V0.5),[1],~ 10 mV
same,inhibition at 10 µM,[2],90 to 100%
CCCCCCCCCCN [decylamine],Inactivated Block (shift in V0.5),[1],~ 10 mV
same,inhibition at 10 µM,[2],> 80%
